Experimental data as given in patent US8835447B2, “Method for treating androgen receptor positive cancers” (priority 2009, dated 2014).
“Also recorded” adds a separate entry of the source.

Assays:
[1] = system: HT1080, HeLa and DU145 cells; experiment: Colony formation assay, non-PCa and AR-negative PCa cells; assay type: cell-based, human; details: 10 μM, 7 days
Method: (§1) Cell Colony Assay: Cells were plated in 24-well plates at a density allowing 6-7 days of exponential growth before confluency. Medium and compound was replaced every 48 hours to minimize the effect of potential compound instability. After 7 days of incubation in the presence of compound, cells were fixed and stained with methylene blue, followed by extraction of the stain with 1% SDS and spectrophotometry at 650 nm. Each assay was run in triplicate and the difference between control and compound-treated wells was determined using Student's t-test.
(§2) This Example provides a description of the effect of the selected compounds on the growth of PCa cells. To test the toxicity of the identified AR inhibitors towards cells of different origins, we performed colony formation assays using a single dose of each compound (10 μM) on several PCa (LNCaP, C4-2, CWR22R and DU145) and two non-PCa (HT1080 and HeLa) cell lines (FIG. 2A). […] These compounds were not weaker inhibitors of AR transcriptional activity in CWR22R or C4-2 cells than compounds that inhibited growth of the cells.

[2] = system: AR-expressing PCa cell lines (LNCaP, C4-2, CWR22R); experiment: Toxicity to AR-expressing PCa cell lines (colony formation / dose-dependent growth inhibition); assay type: cell-based, human
Method: as §1
Dose-dependent inhibition of cell growth: Cells were plated at 1×10^3 cells per well in 96-well plates. Compounds were added in a dose range from 1 to 20000 nM in two-fold increments. Each dose was tested in triplicate. Controls were 0.1% DMSO (no effect on cell viability) and 50 μM 9-aminoacridine (complete cell death). Cells were incubated for 6 days and then fixed and stained with methylene blue, followed by extraction of the stain with 1% SDS and spectrophotometry at 650 nm. The assay was run two times and, based on the results, the inhibitory concentration of compound suppressing cell growth by 50% as compared to DMSO (IC50) was calculated by the sigmoid approximation method using CalcuSyn software (Biosoft, Chembridge, UK). Confidence intervals were calculated for each sigmoid.
as §2, with “the cells. […]” for “the cells.”

CWR22R cells = experiment: Cell cycle distribution by propidium iodide staining; assay type: cell-based, human; details: propidium iodide FACS
Method: Analysis of cell cycle distribution was based on staining of DNA content by propidium iodide. 10^5 cells were removed from culture dishes using trypsin, washed with PBS and resuspended in 300 μl 3% BSA in PBS, followed by addition of […] 70% ethanol. Cells were kept at −20° C. for several hours and then stained with 10 μg/ml propidium iodide in the presence of 30 μg/ml RNase A for 2 hrs at 37° C. DNA content was assessed using a FACS Calibur instrument and CellQuest software (Becton Dickinson, Franklin Lakes, N.J.).
To test this possibility, we assessed the cell cycle distribution of CWR22R cells treated with both categories of compounds. […] Therefore, different subsets of compounds inhibiting AR-dependent transcription in androgen-independent PCa cells cause either growth arrest or apoptosis in these cells. Whether a compound causes growth arrest or apoptosis is not determined by the potency of the compound as an inhibitor of AR-dependent transcription (i.e., FIG. 2B).

NIH Swiss mice = experiment: Compound safety in mice, dose escalation; assay type: in vivo; details: three i.p. injections 20x, 50x, 100xIC50 in 3 day intervals
Method: Testing of compound safety in mice was done according to an IACUC-approved protocol. The experiment was performed using outbred 8 week old NIH Swiss male mice from Harlan (Indianapolis, Ind.), 4 mice per group. IC50 concentrations were used to calculate in vivo doses based on mouse weight (IC50 in vivo dose equivalent in mg/kg=IC50 in mg/ml×1000, based on the assumption that 1 g of mouse tissues have an approximate volume of 1 ml). The compounds were injected intraperitoneally (i.p.) in 25% DMSO-75% PBS starting from 20×IC50 equivalent of in vitro cytotoxic dose of compounds. […]. The control group of mice received 3 injections of 25% DMSO-75% PBS in intervals of three days. Blood biochemistry analysis was performed by BioReliance (Rockville, Md.).
Five hit compounds, representing both the ARTIS and ARTIK categories (c6, c11, c17, c52 and c85), were selected for in vivo tests based on all of the previous assays. Compound c5 was rejected due to very low microsomal stability (<5% after 1 hour incubation with rat microsomes). The toxicity of the compounds was evaluated in a dose escalation assay in which male NIH Swiss mice (n=4) received three sequential intraperitoneal (i.p.) injections of each compound delivered in 3 day intervals. […]. On the day after the last injection, half of the mice in each group were sacrificed for gross pathology examination and collection of blood for serum biochemistry assays, which include total protein, glucose, bilirubin, and creatinine levels, activity of liver enzymes, and ion concentrations. The remaining mice were sacrificed and evaluated similarly 7 days after the last compound injection. […] A minor decrease in serum glucose concentration (70-80% of control) was observed on the day after the last compound injection in almost all mice, but glucose levels were normal a week later (data not shown). Low serum glucose level might reflect of a weak transient GR-inhibitory effect of the selected compounds.

## CCCn1c2ccccc2c2cc(C(C)=O)ccc21 [c52]
[1]
  growth of / toxicity towards non-PCa cells or AR-negative PCa cells (DU145): no toxicity
[2]; colony formation, 10 μM, three AR-expressing PCa cell lines
  toxicity towards AR-expressing PCa cell lines: different degrees of toxicity; also recorded: kill all PCa cells expressing AR
[2]; dose-dependent toxicity, by day 7
  degree of toxicity to PCa cells (killing vs reduced growth): kill practically all of the PCa cells in the culture by day 7
CWR22R cells
  cells with sub-G1 DNA content (apoptotic): appearance of cells with sub-G1 DNA content
NIH Swiss mice
  toxicity in mice (visual inspection, gross pathology): generally non-toxic
